One block for each compound: values may come before it.
Legend:
[1] = Hyperpolarized T1 of arginine guanidine-carbon at 1T; type: physicochemical; conditions: 30° flip angle, 3 s repetition time, average of two
Experimental: (§1) To confirm the reduction of quadrupolar relaxation at the guanidine-carbon by ^15N enrichment, ^13C NMR spectra for unlabeled and [6-^13C, 6-^15N3]-L-Arginine-HCl (21, as described in Example 2) was obtained with a 14.1T ^13C NMR. The full width half max (FWHM) of the guanidine-carbon peak was measured, and the FWHM of the carbon-1 peak was used as an internal standard. For hyperpolarized T1 measurements compound 21 was mixed with 1 equivalent HCl and dissolved to a final concentration of 1.3 M in 2:3 H2O:glycerol with 15 mM of a OX063 radical. The sample was polarized for at least 1 h in a SpinSolve polarizer. […] This was performed twice and the calculated T1 values were averaged.
(§2) The FWHM of the guanidine-carbon peak for natural abundance and compound 21 was measured to be 1.4 Hz and 1.0 Hz, respectively, and the FWHM of carbon-1 was 0.9 Hz for both compounds (FIG. 5B).

[2] = Thermal equilibrium T1 at high field (14.1T), inversion recovery; type: physicochemical; conditions: for T1 Value (s) D2O: 95:5 D2O:H2O, 100 mM Tris pD 7.4; for T1 Value (s) H2O: 100% H2O, 100 mM Tris pH 7.4
Experimental: (§3) [5-^13C]-glutamine (Cambridge Isotope Laboratories), [^13C]-urea (Sigma Aldrich), [^13C, ^15N2]-urea (Sigma Aldrich), [6-^13C]-arginine (Cambridge Isotope Laboratories), [5-^13C, ^15N]-glutamine (24) (24, as described in Example 7) and [6-^13C, ^15N3]-arginine (21, as described in Example 2) were evaluated to determine thermal equilibrium T1 and T2. An aliquot of each compound was dissolved in 95:5 D2O:H2O containing 100 mM Tris pD 7.4 and 100% H2O containing 100 mM Tris pH 7.4. [^13C]-urea and [^13C, ^15N2]-urea were dissolved to a final concentration of 100 mM.
(§4) ^13C NMR spectra for each compound dissolved in 95:5 D2O:H2O and 100% H2O was obtained with a 14.1T ^13C NMR (Bruker, USA). For inversion recovery experiments, 13 to 15 different delay times between the 180° and 90° pulses, spanning 3T1, were sampled. Each spectrum was an average of 3 to 4 scans, and a 5T1 to 6T1 pre-scan wait time was used to allow re-polarization of carbon nuclear spins between scans. T2 values were measured using a Carr-Purcell-Meiboom-Gill (CPMG) sequence for each compound dissolved in 95:5 D2O:H2O and 100% H2O. A 10 ms (or 5 ms ^13C-urea samples) wait-time between 180° pulses was used, and signal was acquired at total echo times spanning 3T2. For both T1- and T2-relaxation curve fitting, spectra were imported into Mnova (Mestrelabs, USA) and the area under the curve (AUC) of the ^13C resonance of interest was integrated. AUC values were exported to Prism 7 (GraphPad Software, USA), plotted against time on the x-axis, and data points were fit to the Bloch equations for T1 and T2.
(§5) When each compound was dissolved in D2O, the exchangeable protons on the nitrogen atoms rapidly exchange with deuterium in the solvent. As described in Table 1, at high field, each compound having protons exchanged with deuterium extended the T1 of ^13C relaxation times directly bonded to —NH or —NH2 residues, respectively. This effect is further illustrated for [6-^13C]-/[6-^13C, ^15N3]-arginine in FIG. 7.

[3] = Thermal equilibrium T2 at high field (14.1T), CPMG; type: physicochemical; conditions: for T2 Value (s) D2O: 95:5 D2O:H2O, 100 mM Tris pD 7.4; for T2 Value (s) H2O: 100% H2O, 100 mM Tris pH 7.4
Experimental: as §3, §4, §5

[4] = Hyperpolarized T1 at 1T after dissolution in buffered H2O or D2O; type: physicochemical; conditions: for Hyperpolarized T1 Value (s) D2O: dissolution in 100 mM Tris 1 mM EDTA pD 7.4 D2O; for Hyperpolarized T1 Value (s) H2O: dissolution in 100 mM Tris 1 mM EDTA pH 7.4 H2O
Experimental: Each compound was prepared with a different formulation, as follows: [5-^13C]- and [5-^13C, ^15N]-glutamine was mixed with 1.1 equivalent HCl and dissolved to a final concentration of 1.5 Min H2O:DMSO (65:35). [^13C]— and [^13C, ^15N2]-urea was dissolved to a final concentration of 6M in glycerol. [6-^13C]- and [6-^13C, ^15N3]-arginine was mixed with 1 equivalent HCl and dissolved to a final concentration of 3.2M in H2O. Each of these preparations also contained OX063 radical (General Electric, UK) dissolved to a final concentration of 15 mM. [^13C]—/[^13C, ^15N2]-urea and [6-^13C]-/[6-^13C, ^15N3]-arginine samples were polarized in a 3.35T SpinLab Polarizer (General Electric, UK) for 1.5 hours (0.83K, 93.98 GHz), while: [5-^13C]-/[^13C, ^15N]-glutamine samples were polarized in a 5T SpinLab Polarizer for 2 hours (0.83K, 93.98 GHz). Following polarization, the HP substrate was ejected from the polarizer via rapid dissolution, during which a superheated solution of 100 mM Tris 1 mM EDTA in pH 7.4 H2O or pD 7.4 D2O is run through the sample vial to dissolve the polarized substrate and eject it into a pre-chilled glass vial (−20° C.).

[5] = Hyperpolarized T1 measurement of 13C,15N-xanthine at 1T; type: physicochemical; conditions: mono-exponential decay fit corrected for flip angle
Experimental: (§6) A preparation containing 0.15-0.2 M [2-^13C, 1,3-^15N2]-3,7-dihydro-1H-purine-2,6-dione (6, as described in Example 1) and the OX063 radical was hyperpolarized using a SPINlab hyperpolarizer. T1 measurements were performed using 1T Magritek Spectrometer. For the acquisition of hyperpolarized spectra, data was acquired with a 5 s repetition time and 15° excitation for a total of 45 s. In vitro enzymatic experiments to evaluate the activity of XO in oxidizing xanthine (XA) to uric acid (UA) using superoxide as a cofactor were performed using 100 mg of mouse liver extract together with a PMS/NADH+ system to generate O^2−. ^13C NMR spectra was acquired using a 14.1T NMR spectrometer.
(§7) Compound 6 was hyperpolarized. The ^13C chemical shift between hyperpolarized XA and hyperpolarized UA was measured and determined to be 0.8 ppm. After dissolution, spectra of compound 6 were obtained and fit to a mono-exponential decay function, correcting for flip angle, to determine the spin-lattice relaxation time. A T1 of 77±1.4 s was measured (FIG. 2).

Xanthine Oxidase (XO) = target: T1, Xanthine Oxidase (XO) (Mus musculus, UniProt Q00519); assay: In vitro oxidation of xanthine by XO in mouse liver extract with O2− (PMS/NADH system), 13C NMR; type: biochemical; conditions: 100 mg mouse liver extract, in the presence of O2−
T1 construct: from tissue; host or cells: mouse liver extract
Experimental: as §6, §7

U251 cells = assay: CellROX green fluorescence microscopy of intracellular ROS; type: cell-based; conditions: menadione-treated U251 cells, co-incubation for 45 min
Experimental: Western blots for XO and xanthine transporter were performed using 20 ng of protein extract from 14 cell lines. In vitro fluorescent microscopy using CellROX green was performed in U251 cells to evaluate intracellular reactive oxygen species (ROS) and the effect of xanthine as an ROS scavenger. 14 different cancer cell lines from renal, sarcoma, lung, prostate, breast, pancreatic, oral, epithelial cancer were also screened to evaluate expression of xanthine transporter and XO. In all the cells, a high expression of XO was observed, whereas xanthine transporter was variable between the cell lines, with the largest expression in U251 cells. Therefore, this cell line was used for further in vitro fluorescence experiments (FIG. 3).

[6] = FWHM of 13C NMR peaks at 14.1T (quadrupolar relaxation at guanidine-carbon); type: physicochemical; conditions: for FWHM of the guanidine-carbon peak / FWHM of carbon-1: 14.1T 13C NMR; for FWHM of carbon-1: internal standard
Experimental: as §1, §2
Therefore, the present methods may be used to follow Arg-1 activity within a tumor and serve as a surrogate readout of TAM infiltration. As such, this information may be used in therapy selection, monitoring therapeutic efficacy, and determining prognosis.

[7] = target: T2, human recombinant arginase-1 (Homo sapiens, UniProt P05089); assay: Michaelis-Menten kinetics, colorimetric urea assay; type: biochemical; conditions: 37° C., compound as substrate
T2 sequence (P05089 1-322): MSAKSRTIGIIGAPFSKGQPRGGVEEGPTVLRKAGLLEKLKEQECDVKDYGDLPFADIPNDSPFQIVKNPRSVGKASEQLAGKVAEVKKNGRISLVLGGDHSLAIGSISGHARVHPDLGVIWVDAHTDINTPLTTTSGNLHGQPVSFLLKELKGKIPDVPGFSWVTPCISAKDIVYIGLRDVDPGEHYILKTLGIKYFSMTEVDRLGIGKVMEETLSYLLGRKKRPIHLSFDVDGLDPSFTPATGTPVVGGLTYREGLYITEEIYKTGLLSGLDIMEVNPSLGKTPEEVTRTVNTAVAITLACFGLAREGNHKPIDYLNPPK

arginase = target: T3, arginase (Mus musculus, UniProt Q61176); assay: In vivo conversion of injected labeled arginine to urea in mouse liver (13C-NMR of extract); conditions: Balb/c mouse, tail vein 250 μL 20 mM, 1 min post-injection, extrapolated to a 1 g liver
T3 construct: from tissue; host or cells: liver of a living Balb/c mouse (in vivo)
T3 sequence (Q61176 1-323): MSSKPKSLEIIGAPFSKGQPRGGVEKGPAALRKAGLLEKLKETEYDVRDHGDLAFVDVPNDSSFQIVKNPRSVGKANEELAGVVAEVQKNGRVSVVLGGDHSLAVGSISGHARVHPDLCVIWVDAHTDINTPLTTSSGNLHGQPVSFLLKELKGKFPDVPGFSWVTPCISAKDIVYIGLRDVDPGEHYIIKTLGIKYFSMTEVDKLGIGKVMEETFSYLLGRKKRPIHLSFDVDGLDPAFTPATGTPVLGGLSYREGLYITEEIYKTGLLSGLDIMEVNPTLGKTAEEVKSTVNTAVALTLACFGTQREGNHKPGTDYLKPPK
Experimental: In vivo assay: A female, Balb/c mouse was equipped with a tail vein cannula and placed under anesthesia (1.5% isoflurane, 1 L/min for 30 mins), after which it was injected with 250 μL 20 mM [6-^13C, ^15N3]-arginine in 100 mM Tris, 1 mM EDTA pH 7.4 (in addition to another 100 μL of 10 U/mL heparin in saline which was in the dead space of the cannula) over the course of 10 seconds. 1 minute post-injection, the mouse was sacrificed via cervical dislocation, and the liver was collected and frozen in liquid nitrogen. 118 mg of the liver was extracted in 4% perchloric acid, the metabolite extract mixture was dried and subsequently re-suspended in D2O containing the glycine standard and 0.5 mM Gd-DOTA. A ^13C-NMR spectrum was acquired on a 600 MHz spectrometer (FIG. 10).

Compound: N=[13C](N)NCCC[C@H](N)C(=O)O [Arginine ^13C, [6-^13C]-arginine]
T1 of the guanidine-carbon [1]: could not be measured
T1 Value (s) D2O [2]: 9.74 ± 0.32 s
T1 Value (s) H2O [2]: 6.62 ± 0.22 s
T2 Value (s) D2O [3]: 0.234 ± 0.004 s
T2 Value (s) H2O [3]: 0.184 ± 0.003 s
Hyperpolarized T1 Value (s) D2O [4]: 32.1 ± 4.5 s

Compound: N[13C](N)=O [Urea ^13C, [^13C]-urea]
T1 Value (s) D2O [2]: 57.24 ± 3.95 s
T1 Value (s) H2O [2]: 31.01 ± 1.18 s
T2 Value (s) D2O [3]: 0.100 ± 0.002 s
T2 Value (s) H2O [3]: 0.089 ± 0.001 s
Hyperpolarized T1 Value (s) D2O [4]: 123.8 ± 19.6 s
Hyperpolarized T1 Value (s) H2O [4]: 51.6 ± 5.44 s

Compound: N=C(N)NCCC[C@H](N)C(=O)O [natural abundance arginine, arginine]
FWHM of the guanidine-carbon peak [6]: 1.4 Hz
FWHM of carbon-1 [6]: 0.9 Hz
Vmax [7]: 54.8 ± 2.2 s⁻¹

Compound: [6-^13C, 6-^15N3]-L-Arginine-HCl [Compound 21]
FWHM of the guanidine-carbon peak [6]: 1.0 Hz
FWHM of carbon-1 [6]: 0.9 Hz
decrease of FWHMguanidine:FWHMcarbon-1 ratio ([6]; labeled versus natural abundance arginine): 29%
T1 of the guanidine-carbon [1]: 20.4 ± 0.4 s
Km [7]: 2040 ± 270 µM
Vmax [7]: 48.2 ± 2.0 s⁻¹
[13C, 15N2]-urea produced, share of the total injected arginine dose (arginase): approx. 3%
T1 Value (s) D2O [2]: 9.71 ± 0.26 s
T1 Value (s) H2O [2]: 6.83 ± 0.19 s
T2 Value (s) D2O [3]: 2.68 ± 0.03 s
T2 Value (s) H2O [3]: 0.82 ± 0.02 s
Hyperpolarized T1 Value (s) D2O [4]: 31.2 ± 6.8 s
Hyperpolarized T1 Value (s) H2O [4]: 13.3 ± 0.8 s

More lines, main results first:

T1 (spin-lattice relaxation time) [5]: 77 ± 1.4 s
time to be oxidized in liver extracts (Xanthine Oxidase (XO)): less than 10 minutes
Compound: O=c1[15nH][13c](=O)[15nH]c2nc[nH]c12 [Compound 6, [2-^13C, 1,3-^15N2]-3,7-dihydro-1H-purine-2,6-dione]
oxidative stress (CellRox fluorescence) (U251 cells): reduced

T1 Value (s) D2O [2]: 12.29 ± 0.32 s
T1 Value (s) H2O [2]: 10.79 ± 0.34 s
T2 Value (s) D2O [3]: 4.66 ± 0.67 s
T2 Value (s) H2O [3]: 3.35 ± 0.21 s
Hyperpolarized T1 Value (s) D2O [4]: 31.2 ± 3.8 s
Hyperpolarized T1 Value (s) H2O [4]: 23.6 ± 2.1 s
Compound: N[C@@H](CC[13C]([15NH2])=O)C(=O)O [Compound 24, (5-13C, 5-15N) L-glutamine]

T1 Value (s) D2O [2]: 12.34 ± 0.21 s
T1 Value (s) H2O [2]: 10.66 ± 0.34 s
T2 Value (s) D2O [3]: 0.455 ± 0.004 s
T2 Value (s) H2O [3]: 0.354 ± 0.003 s
Hyperpolarized T1 Value (s) D2O [4]: 34.1 ± 2.5 s
Hyperpolarized T1 Value (s) H2O [4]: 21.8 ± 1.8 s
Compound: N[C@@H](CC[13C](N)=O)C(=O)O [Glutamine ^13C, [5-^13C]-glutamine]
